Publication PMC10498667 (Chemical Science, 2023)
pIC50: −log10 of the molar value. Where two headings read alike, the source gives them in different places.

Tests used:
Assay type in all cases: biochemical
[1] = target: T1, Electric eel acetylcholinesterase (eeAChE) (Electrophorus electricus, UniProt O42275); test: Fluorometric AChE activity assay
T1 construct: purchased Invitrogen (AChE assay kit)
Text: Inhibiting the activity of AChE can maintain a proper level of ACh under dysregulated cholinergic conditions.[10,11] Thus, the inhibitory capability of flavonoids against AChE was investigated by a previously reported fluorescent AChE assay with slight modifications.[60] […] The inclusion of three hydroxyl groups on the A ring is critical for controlling the catalytic activity of AChE, as previously reported,[49] whereas the incorporation of a chloro substituent, with three hydroxyl groups, and methoxy moieties instead of hydroxyl groups on the A ring can decrease such inhibitory activity. Flavonoids 2, 3, and 1b over 1 illustrates the importance of the position of hydroxyl groups on the A ring and the isoflavone variation in directing the flavonoids' ability to inhibit the activity of AChE. […]
All experiments were performed in triplicate.
AChE Activity Assay. The AChE inhibitory activity of flavonoids was measured by a fluorometric AChE assay kit (Invitrogen) following the manufacturer ’s protocol with slight modifications.
Electric eel acetylcholinesterase (eeAChE) was dissolved and diluted with a working solution. The eeAChE solution (50 µL) was added into a 96-well plate. Various concentrations of flavonoids were then introduced into the 96-well plate. The final concentrations of flavonoids were as follow: […]
µM). After shaking, the mixture of eeAChE and flavonoids was pre-incubated for 15 min. A reaction mixture containing acetylcholine, an AChE probe, and AbRedTM was added into the 96-well plate to initiate the reaction. The AChE activity was calculated based on the fluorescence intensity (lex/lem = 571/585 nm) of the wells that was detected after 15 min incubation. Data were normalized to the control (no inhibitor). All experiments were performed in triplicate. […]
For the disaggregation studies, Ab (25 µM) was incubated with and without CuCl2 or ZnCl2 (25 µM) for 24 h at 37 °C with constant agitation to generate preformed Ab aggregates. The resultant Ab aggregates were then treated with flavonoids (50 µM) and incubated for additional 24 h with constant agitation. For the additional disaggregation experiments, preformed Ab42 aggregates (25 µM) or Ab42 seeds (10% v/v) with or without metal ions (25 µM for CuCl2 and ZnCl2) were incubated with flavonoids (50 µM) for 24 h with constant agitation. The resultant Ab aggregates were then treated with freshly prepared Ab42

[2] = target: T2, Aβ42 (Homo sapiens, UniProt P05067); test: Aβ42 aggregation inhibition experiments (gel/western blot, TEM); settings: flavonoid 50 μM, 24 h
T2 construct: purchased Peptide Institute, Inc. (Osaka, Japan)
Description: To verify whether a series of nine flavonoids can modulate the aggregation of Aβ with and without metal ions, the molecular weight (MW) distribution and morphology of the resultant Aβ species were determined by gel electrophoresis with western blotting (gel/western blot) using an anti-Aβ antibody (6E10) and transmission electron microscopy (TEM), respectively. Two types of experiments were carried out employing two major Aβ isoforms, i.e., Aβ42 and Aβ40:[25] (i) inhibition studies to identify the effect of 1–5, 1a, 1b, 4a, and 4b on the formation of Aβ aggregates; (ii) disaggregation studies to evaluate if the flavonoids with reactivities towards Aβ aggregation in inhibition studies can disassemble preformed Aβ aggregates or modulate their further aggregation, as illustrated in Fig. 4 and S5–S9. ^† Moreover, the solutions containing the flavonoids and Cu(II) were probed by electronic absorption (Abs) spectroscopy to monitor their metal binding. […] As expected, no Abs change of 1a and 4a composed of methoxy groups on the A ring was detected by addition of Cu(II). […]
Ab Aggregation Experiments. Ab was dissolved in ammonium hydroxide [1% w/w NH4OH (aq)] and the resulting solution was aliquoted, lyophilized overnight, and stored at –80 °C. A stock solution of Ab was then prepared by dissolving the lyophilized peptide with NH4OH (1% w/w, aq; 10 µL) and diluting with ddH2O. All Ab samples were prepared following previously reported procedures.21,22 The concentration of the peptide solution was determined by measuring its […]
solution (20 mM HEPES, pH 7.4, 150 mM NaCl) was used for preparing Ab samples. For the inhibition studies, flavonoids (final concentration, 50 µM; 1% v/v DMSO) were added to the samples of Ab (25 µM) in the absence and presence of CuCl2 or ZnCl2 (25 µM) followed by incubation for 24 h at 37 °C with constant agitation. For the disaggregation studies, Ab (25 µM) was incubated with and without CuCl2 or ZnCl2 (25 µM) for 24 h at 37 °C with constant agitation to generate preformed Ab aggregates. The resultant Ab aggregates were then treated with flavonoids (50 µM) and incubated for additional 24 h with constant agitation. For the additional disaggregation experiments, preformed Ab42 aggregates (25 µM) or Ab42 seeds (10% v/v) with or without metal ions (25 µM for CuCl2 and ZnCl2) were incubated with flavonoids (50 µM) for 24 h with constant agitation. The resultant Ab aggregates were then treated with freshly prepared Ab42 […]
(25 µM) and incubated for additional 24 h with constant agitation.
Gel/Western Blot. The resultant Ab species from the aggregation experiments were analyzed by gel/Western blot using an anti-Ab antibody (6E10, Covance, Princeton, NJ, USA).21,22 Each sample (10 µL) was separated on a 10–20% tricine gel (Invitrogen). Following separation, the proteins were transferred onto nitrocellulose membranes and blocked with bovine serum albumin (BSA, 3% w/v; Sigma-Aldrich) in Tris-buffered saline (TBS) containing 0.1% v/v Tween-20 (Sigma-Aldrich) (TBS-T) for 4 h at room temperature or overnight at 4 °C. The membranes were incubated with 6E10 (1:2,000) in the solution of BSA (2% w/v in TBS-T) for 4 h at room temperature. […] A homemade ECL kit21–23 was used to visualize gel/Western blots on a ChemiDoc MP Imaging System (Bio-Rad).
TEM. Samples for TEM were prepared following previously reported methods.22,24 Glow-discharged grids (Formvar/Carbon 300-mesh; Electron Microscopy Sciences, Hatfield, PA, USA) were treated with Ab samples (25 µM; 7.5 µL) for 2 min at room temperature. Excess sample was removed using filter paper followed by washing with ddH2O (3x). Each grid incubated with uranyl […]

[3] = target: T2, Aβ42; test: Dot blot assay with anti-oligomer (A11) and anti-fibril (OC) antibodies; settings: flavonoid 200 μM, up to 24 h
Text: Moreover, to investigate the effects of the flavonoids on the oligomerization and fibrilization of metal-free Aβ42 and metal–Aβ42, we performed the dot blot assay employing anti-oligomer (A11) and anti-fibril (OC) antibodies,[23] as illustrated in Fig. S12. ^† It should be noted that the thioflavin-T (ThT) assay utilized for monitoring the formation of β-sheet-rich aggregates cannot be carried out under our experimental conditions since the absorption windows of 4, 5, and 4b interfere with the excitation and emission wavelengths of ThT (Fig. S13 ^†). […]
Dot Blot Assay. The samples containing Ab42 (100 µM) with or without CuCl2 or ZnCl2 (100 µM) in the absence and presence of flavonoids (200 µM; 1% v/v DMSO) were prepared in 20 mM HEPES, pH 7.4, 150 mM NaCl and incubated for various time points (0, 1, 2, 3, 4, 6, 12, and 24 h). […] The membrane was incubated with a primary antibody [i.e., 6E1026 for Ab species (1:2,000), A1126 for Ab oligomers (1:1,000; Invitrogen, Carlsbad, CA, USA), or OC26 for Ab fibrils (1:2,000; Merch Millipore, Billerica, MA, USA)] in the solution of BSA (2% w/v in TBS-T) for 4 h at room temperature. […] A homemade ECL kit21–23 was used to visualize the results on a ChemiDoc MP Imaging System.
The intensity observed from A11- or OC-detectable Ab species was quantified, relative to that detected from 6E10, by the ImageJ software. […]

[4] = Zn(II)–Aβ42, Aβ 25 μM, Zn(II) 25 μM
[5] = Cu(II)–Aβ42 or Zn(II)–Aβ42 100 μM

T2 sequence (P05067 672-713 limits assumed): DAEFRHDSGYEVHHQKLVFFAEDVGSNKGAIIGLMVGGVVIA
T1 sequence (O42275 24-633): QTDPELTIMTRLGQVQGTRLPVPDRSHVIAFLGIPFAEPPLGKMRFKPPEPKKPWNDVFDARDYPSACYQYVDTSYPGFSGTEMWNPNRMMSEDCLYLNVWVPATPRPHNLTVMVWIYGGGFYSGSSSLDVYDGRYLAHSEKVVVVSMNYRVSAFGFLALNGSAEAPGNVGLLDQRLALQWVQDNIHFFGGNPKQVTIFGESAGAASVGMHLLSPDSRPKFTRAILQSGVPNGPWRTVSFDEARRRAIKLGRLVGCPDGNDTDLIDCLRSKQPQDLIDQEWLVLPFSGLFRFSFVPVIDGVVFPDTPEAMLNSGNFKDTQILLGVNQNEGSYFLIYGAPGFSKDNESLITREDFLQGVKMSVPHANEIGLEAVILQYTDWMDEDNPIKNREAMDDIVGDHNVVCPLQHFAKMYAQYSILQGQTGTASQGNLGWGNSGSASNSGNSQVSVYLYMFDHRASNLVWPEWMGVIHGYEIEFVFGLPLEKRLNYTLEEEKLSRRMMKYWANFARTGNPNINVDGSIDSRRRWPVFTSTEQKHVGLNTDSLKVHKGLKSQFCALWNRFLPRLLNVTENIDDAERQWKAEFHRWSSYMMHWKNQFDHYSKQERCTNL

Compound | pIC50 [1] | morphology of resultant aggregates (TEM) ([2]; Cu(II)–Aβ42) | MW distribution of resultant species (gel/western blot) [2, 4] | morphology of resultant aggregates (TEM) ([2]; Zn(II)–Aβ42) | MW distribution of resultant species (gel/western blot) ([2]; metal-free Aβ42 25 μM, 37 °C) | morphology of resultant aggregates (TEM) ([2]; metal-free Aβ42) | A11- and OC-detectable signals (oligomers and fibrils) [3, 5] | A11- and OC-detectable signals (oligomers and fibrils) ([3]; metal-free Aβ42 100 μM) | inhibitory activity against AChE (IC50 could not be obtained) ([1]; fluorometric assay, eeAChE) | pIC50 ([1]; fluorometric assay, eeAChE, read-out: IC50 for AChE inhibition)
O=c1c(-c2ccccc2)coc2cc(O)cc(O)c12 [1b, 5,7-dihydroxyisoflavone] | 4.93 | did not indicate any noticeable morphological changes | a significant change in the MW distribution was not indicated | did not indicate any noticeable morphological changes | could not change the size distribution | little or no morphological alteration | not significantly varied | not significantly varied |  | 
COc1cc(OC)c2c(=O)cc(-c3ccccc3)oc2c1 [1a, 5,7-dimethoxyflavone] |  | did not indicate any noticeable morphological changes | a significant change in the MW distribution was not indicated | did not indicate any noticeable morphological changes | could not change the size distribution | little or no morphological alteration | not significantly varied | not significantly varied | negligible inhibitory activity | 
COc1cc2oc(-c3ccccc3)cc(=O)c2c(OC)c1OC [4a, 5,6,7-trimethoxyflavone] |  | did not indicate any noticeable morphological changes | a significant change in the MW distribution was not indicated | did not indicate any noticeable morphological changes | could not change the size distribution | little or no morphological alteration | not significantly varied | not significantly varied |  | 4.28
